Assay results as given in patent publication US20250195547A1, “COMPOSITIONS AND METHODS OF TREATMENT FOR CONGENITAL DIARRHEAL DISORDER” (VANDERBILT UNIVERSITY, priority 2022, published 2025).
Entries after “also recorded” stand apart in the source; their conditions may differ.

Experiments:
[1] = system: MYO5B(P663L) pig enteroids; experiment: Tuft cell differentiation in pig MVID model enteroids; format: cell-based; conditions: 100 nM daily in ODM, 5 days, vs vehicle (PBS)
Procedure: Pig enteroids were expanded in Matrigel (Corning) immersed in IntestiCult Organoid Growth Medium (Human, OGM, Stem Cell Technology). Organoid growth was assessed in 96-well plate and continuously imaged whole wells using a JuLi™ Stage (NanoEn Tek Inc., Waltham, MA). Organoid perimeter was measured by using FIJI, and organoid forming rate was calculated as sphere numbers per plated cell numbers 7 days after the passaging. N=7-9 wells from each genotype. In a different set of culture, tuft cells were differentiated in Organoid Differentiation Medium (ODM, Stem Cell Technology) for 5 days, following after 2 days culture in OGM after passaging. MYO5B(P663L) enteroids were incubated with 100 nM Compound-1 or vehicle (PBS) in ODM.
Organoids were fixed with 10% NBF for 30 min in Matrigel domes, rinsed with cold PBS containing 0.1% FBS and centrifuged to remove Matrigel. Fixed organoids were blocked with 5% normal donkey serum in PBS containing 0.3% Triton X-100 for 2 hours and incubated with the pGirdin (1:100) or POU2F3 (1:200) antibody diluted with the blocking solution for 2 days at 4° C. After rinsing in PBS with Triton X-100, donkey anti-rabbit Cy3 antibody (2.5 μg/ml), Alexa Fluor 488 phalloidin (1:400, A12379, Thermo Fisher), and Hoechst 33342 (2 mM) were applied for 2 hr. […]

human LPAR5 = human LPAR5 (Homo sapiens, UniProt Q9H1C0); conditions: cited from earlier work
Solubility / stability = format: physicochemical; conditions: as a sodium salt
Myo5bΔINT mice = experiment: Daily LPAR agonist treatment of tamoxifen-induced Myo5bΔINT mice (MVID model), intestinal histology and immunostaining; format: in vivo, mouse; conditions: for Hmgcs2 protein expression in jejunal epithelial cells / apical localization of transporters NHE3 and SGLT1: immunostaining; for Hmgcs2 protein expression in jejunal epithelial cells: once daily ip for 4 days; for tuft cell differentiation (tuft cell population) in Myo5bΔINT intestine: once a day for 4 days, LPA 3 mg/kg, Compound-1 1 mg/kg, UCM-05194 10 mg/kg, GRI977143 3 mg/kg; for apical localization of transporters NHE3 and SGLT1: small intestine, daily treatment
Procedure: All animal studies were performed with approval from the Institutional Animal Care and Use Committee of Vanderbilt University Medical Center (M2000104). At the 8-10 week of age, Myo5bΔINT mice and littermate controls (VilCre^ERT2; Myo5b^+/flox and Myo5b^flox/flox) received a single dose of tamoxifen (100 mg/kg) by intraperitoneal (IP) injection (day 0) (Weis et al.). […] Compound-1 was dissolved in PBS, and UCM-05194 was dissolved in Captisol solution. Body weight changes and diarrhea symptoms were investigated daily. On day 4, mice were euthanized and the duodenum (0-8 cm from the pyloric ring), jejunum (8 cm following the duodenum), ileum (distal 8 cm from the ileocecal junction), and colon were collected for pathological assessment as previously reported (Kaji et al.).
Immunofluorescence staining and imaging were performed as previously reported (Kaji, JCI Insight). Four-μm-thin sections were deparaffinized and rehydrated before performing antigen retrieval using 10 mM sodium citrate buffer, contained 0.05% Tween 20 (pH 6), in a pressure cooker for 15 minutes. After cooling down on ice, slides were rinsed in PBS and blocked with protein block serum-free (Dako) for 1 hour at r/t or overnight at 4° C. The primary antibodies against NHE3 (1:200), SGLT1 (0.5 μg/ml) (Kaji et al., 2020), DCLK1 (AF647-conjugated, 1:2000), KRT19 (1:250), CD3, HMGCS2 (1:50), or Actg1 (1:100) were diluted in Dako diluent in background reducing compound (S3022) and incubated on sections overnight at 4° C. After rinsing in 0.1 M PBS, the slides were incubated with the corresponding secondary antibodies conjugated with fluorescence (Jackson Laboratory) for 1 hour. Slides were rinsed in 0.1 M PBS and counterstained with Hoechst 33342 (4 mM, Thermo Fisher Scientific, Waltham, MA) in PBS. The stained slides were cover-slipped with ProLong Gold Antifade Reagent (P36934, Thermo Fisher). Whole slide images were scanned by a Versa imager 200 with a 20× objective (Leica Biosystems, Buffalo Grove, IL) in the Vanderbilt Digital Histology Shared Resource (DHSR). Some immunofluorescence images were taken by using a Zeiss Axio Imager M2 with ApoTome (Carl Zeiss Microscopy, LLC, White Plains NY).
The DIA code to quantify the tuft cell populations was developed at the DHSR on Python platform as described previously (Kaji 2021).

human LPAR3 = molecular target: T1, human LPAR3 (Homo sapiens, UniProt Q9UBY5); conditions: cited from earlier work
T1 sequence (Q9UBY5 1-353): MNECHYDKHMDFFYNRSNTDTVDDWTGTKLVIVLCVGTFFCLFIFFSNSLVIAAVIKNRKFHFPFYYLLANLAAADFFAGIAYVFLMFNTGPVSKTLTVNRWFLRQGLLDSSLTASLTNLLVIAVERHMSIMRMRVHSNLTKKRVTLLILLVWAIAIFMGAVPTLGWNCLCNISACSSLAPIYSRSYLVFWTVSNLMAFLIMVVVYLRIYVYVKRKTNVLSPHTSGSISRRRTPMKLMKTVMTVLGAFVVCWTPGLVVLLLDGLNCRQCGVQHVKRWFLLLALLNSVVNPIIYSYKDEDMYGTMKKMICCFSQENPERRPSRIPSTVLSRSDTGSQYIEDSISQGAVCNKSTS

[2] = Plasma level after bolus intraperitoneal injection in wild type adult mice; format: in vivo, mouse
Myo5bΔINT enteroids = experiment: Bulk transcriptional analysis (RNA-seq) in MYO5B deficient mouse enteroids; format: cell-based; conditions: 100 nM
Procedure: Enteroids were generated from jejunal crypts of adult VilCre^ERT2; Myo5b^flox/flox and VilCre^ERT2; Myo5b^flox/G519R mice (Burman & Momoh CMGH) without tamoxifen treatment and passaged twice with mechanical breakdown. One day after the second passage, 1 μM 4-OH-tamoxifen (SML1666, Sigma) was added into the IntestiCult Organoid Growth Medium (Mouse, Stem Cell Technology) and incubated for 24 hours to induce Cre recombinase. After the incubation with 4-OH-tamoxifen (induced KO or G519R) or the vehicle, 100% ethanol (Control), the medium was replaced with the modified Minigut medium (Mahe et al., 2013) containing 5% Noggin conditioned medium and 5% R-spondin conditioned medium (Vanderbilt Organoid Core) to withdraw Wnt and EGF for enhancing cell differentiation (Kaji JCI Insight). Some iKO enteroids were incubated with 100 nM Compound-1 for 2 days in differentiation conditions.
Following differentiation, enteroids were placed in Organoid Harvesting Solution (3700-100-01; Cultrex) for 1 hr at 4° C. Enteroids were washed with PBS and centrifuged. Enteroid pellets were immersed in TRIzol reagent (15596026; Invitrogen) supplemented with glycogen (G1767; Sigma Aldrich) and stored at −20° C. Total RNA was extracted from enteroids following the manufacturer's instructions. RNA-sequencing with 4 samples per group and differential expressing gene analysis were performed in Novogene.

[3] = natural LPA; background statement; cited from earlier work

Sequence of human LPAR5 (Q9H1C0 whole entry): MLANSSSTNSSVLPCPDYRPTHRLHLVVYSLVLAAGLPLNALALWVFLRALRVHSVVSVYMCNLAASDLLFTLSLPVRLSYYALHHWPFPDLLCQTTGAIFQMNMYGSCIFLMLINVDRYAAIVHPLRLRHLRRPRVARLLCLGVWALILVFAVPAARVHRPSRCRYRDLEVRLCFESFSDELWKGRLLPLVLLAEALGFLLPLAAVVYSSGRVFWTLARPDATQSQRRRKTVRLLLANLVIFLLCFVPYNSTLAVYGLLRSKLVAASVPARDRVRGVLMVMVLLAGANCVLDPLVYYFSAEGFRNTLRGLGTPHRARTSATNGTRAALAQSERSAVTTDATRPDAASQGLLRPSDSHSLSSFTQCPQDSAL

SMILES: CCCCCCCCCCCCCCCCOC(CCP([O-])(O)=S)COC.[Na+] (stereo not shown) [Compound-1]
- tuft cell numbers in MYO5B(P663L) enteroids [1]: significantly increased
- EC50 (human LPAR5): 0.26 nM
- solubility in water (Solubility / stability): highly soluble
- Intestinal villus/crypt ratio (Myo5bΔINT mice; Compound-1 1 mg/kg daily, intraperitoneal, 4 days, vs vehicle): significantly improved
- increase of villus/crypt ratio in the small intestine (Myo5bΔINT mice; daily Compound-1 treatment): 150%
- effect of subcutaneous tablet insertion (continuous delivery) (Myo5bΔINT mice; high dose 2 mg/mouse per tablet): no consistent effect
- Hmgcs2 protein expression in jejunal epithelial cells (Myo5bΔINT mice): remarkably upregulated
- effect of subcutaneous tablet insertion (continuous delivery) (Myo5bΔINT mice; low dose 0.2 mg/mouse per tablet): no consistent effect
- tuft cell differentiation (tuft cell population) in Myo5bΔINT intestine (Myo5bΔINT mice): reversed; also recorded: significantly increased
- apical localization of transporters NHE3 and SGLT1 (Myo5bΔINT mice): partially recovered; also recorded: partially reversed to normal
- body weight loss (Myo5bΔINT mice; within 4 days, similar to vehicle-treated group): approximately 14%
- effect on human LPAR3 (human LPAR3): agonistic effect
- Compound in plasma ([2]; 1 hour after bolus ip injection 10 mg/kg): detected
- plasma concentration (disappeared) ([2]; within 6 hours after bolus ip injection 10 mg/kg): < 10 ng/mL
- Nox1 expression decreased by MYO5B loss (Myo5bΔINT enteroids; 2 days): reversed
- inflammation- and infection-related genes (Nlrp1b, Ldhb, Hspg2, Trim30) increased by MYO5B loss (Myo5bΔINT enteroids; 2 days during differentiation): significantly reversed
- Hmgcs2 expression in enteroids with and without Compound-1 (Myo5bΔINT enteroids; 2 days, control vs MYO5B deficient enteroids): comparable

SMILES: CCCCCCCC/C=C\CCCCCCCC(=O)OCC(O)COP(=O)(O)O (stereo not shown) [LPA, 18:1 1-oleoyl-Lyso PA, reference compound]
- solubility and stability [3]: poor
- fatty acid oxidation or lipogenesis pathways (transcription) (Myo5bΔINT mice; RNA-seq of jejunal epithelial cells, in vivo LPA (18:1)): did not reverse
- transcription of Hmgcs2 in jejunal epithelial cells (Myo5bΔINT mice; RNA-seq, vs vehicle-treated Myo5bΔINT or healthy littermate mice): significantly upregulated
- Hmgcs2 protein expression in jejunal epithelial cells (Myo5bΔINT mice): further increased
- tuft cell differentiation (tuft cell population) in Myo5bΔINT intestine (Myo5bΔINT mice): reversed
- apical localization of transporters NHE3 and SGLT1 (Myo5bΔINT mice): similarly improved

SMILES: O=C(CCCc1ccccc1)O[C@H](CBr)COP(=O)(O)O [UCM-05194, reference compound]
- intestinal histology (Myo5bΔINT mice; once a day for 4 days after tamoxifen): did not significantly alter
- tuft cell differentiation (tuft cell population) in Myo5bΔINT intestine (Myo5bΔINT mice): no significant effect
